Where only a bound is given, the exact number is not on record here.

The target in the assay is Pseudomonas aeruginosa LpxC enzyme (Pseudomonas aeruginosa (strain ATCC 15692 / DSM 22644 / CIP 104116 / JCM 14847 / LMG 12228 / 1C / PRS 101 / PAO1), UniProt P47205). As to the kind of experiment: biochemical. The settings on record: inhibitory activity on Pseudomonas aeruginosa LpxC enzyme, class symbols A/B/C; read-out: Enzyme inhibitory activity. Format: biochemical.
With `CNC(=O)C(C(=O)NO)N(C)C(=O)c1ccc(C#Cc2ccc(CN(C)C3CCCCC3)cc2)cc1` (centres unmarked) [Compound 327, 2-[({4-[(4-{[cyclohexyl(methyl)amino]methyl}phenyl)ethynyl]phenyl}carbonyl)(methyl)amino]-N-hydroxy-N′-methylpropanediamide], the IC50 is 10 to 100 nM. Next, `CNC(=O)C(C(=O)NO)N(C)C(=O)c1ccc(C#Cc2ccc(CNC(C)(C)C)cc2)cc1` (centres unmarked) [Compound 328]: 10 to 100 nM; `CNC(=O)C(C(=O)NO)N(C)C(=O)c1ccc(C#Cc2ccc(CNCC(C)(C)C)cc2)cc1` (centres unmarked) [Compound 329, 2-[({4-[(4-{[(2,2-dimethylpropyl)amino]methyl}phenyl)ethynyl]phenyl}carbonyl)(methyl)amino]-N-hydroxy-N′-methylpropanediamide]: under 10 nM.

`CNC(=O)C(C(=O)NO)N(C)C(=O)c1ccc(C#Cc2ccc(CNCc3ccccc3)cc2)cc1` (centres unmarked) [Compound 330, 2-[{[4-({4-[(benzylamino)methyl]phenyl}ethynyl)phenyl]carbonyl}(methyl)amino]-N-hydroxy-N′-methylpropanediamide]: the IC50 is under 10 nM. As for `CNC(=O)C(C(=O)NO)N(C)C(=O)c1ccc(C#Cc2ccc(CN3CCC(O)CC3)cc2)cc1` (centres unmarked) [Compound 334, N-hydroxy-2-[{[4-({4-[(4-hydroxypiperidin-1-yl)methyl]phenyl}ethynyl)phenyl]carbonyl}(methyl)amino]-N′-methylpropanediamide], the IC50 was under 10 nM.

`CCN(C(=O)c1ccc(C#Cc2ccc(CN3CCCOCC3)cc2)cc1)C(C(=O)NC)C(=O)NO` (centres unmarked) [Compound 336, 2-{ethyl[(4-{[4-(1,4-oxazepan-4-ylmethyl)phenyl]ethynyl}phenyl)carbonyl]amino}-N-hydroxy-N′-methylpropanediamide]: the IC50 is under 10 nM.

As for `CNC(=O)[C@](C)(C(=O)NO)N(C)C(=O)c1ccc(-c2ccccc2)cc1` [Compound 343, (2R)-2-[(biphenyl-4-ylcarbonyl)(methyl)amino]-N-hydroxy-N′,2-dimethylpropanediamide], the IC50 is over 100 nM.

Turning to `CNC(=O)C(C(=O)NO)N(C)C(=O)c1ccc(-c2nc3ccccc3s2)cc1` (centres unmarked) [Compound 344, 2-[{[4-(1,3-benzothiazol-2-yl)phenyl]carbonyl}(methyl)amino]-N-hydroxy-N′-methylpropanediamide], the IC50 fell in the range of 10 to 100 nM. Turning to `CNC(=O)C(C)(C(=O)NO)N(C)C(=O)c1ccc(C#Cc2ccccc2)cc1` (centres unmarked) [Compound 345, N-hydroxy-N′,2-dimethyl-2-(methyl {[4-(phenylethynyl)phenyl]carbonyl}amino)propanediamide], the IC50 was under 10 nM. Turning to `CNC(=O)C(C)(C(=O)NO)N(C)C(=O)c1ccc(C#Cc2ccc(CN3CCCOCC3)cc2)cc1` (centres unmarked) [Compound 346, N-hydroxy-N′,2-dimethyl-2-{methyl[(4-{[4-(1,4-oxazepan-4-ylmethyl)phenyl]ethynyl}phenyl)carbonyl]amino}propanediamide], the IC50 is under 10 nM.

For the molecule `CNC(=O)C(C(=O)NO)N(C)C(=O)c1ccc(-c2nc3ccccc3o2)cc1` (centres unmarked) [Compound 347, 2-[{[4-(1,3-benzoxazol-2-yl)phenyl]carbonyl}(methyl)amino]-N-hydroxy-N′-methylpropanediamide], the IC50 was over 100 nM. With `CNC(=O)C(C)(C(=O)NO)N(C)C(=O)c1ccc(-c2ccc(OC)cc2)cc1` (centres unmarked) [Compound 348, N-hydroxy-2-{[(4′-methoxybiphenyl-4-yl)carbonyl](methyl)amino}-N′,2-dimethylpropanediamide], the IC50 is under 10 nM. Under `CNC(=O)C(C)(C(=O)NO)N(C)C(=O)c1ccc(-c2ccc(C)cc2)cc1` (centres unmarked) [Compound 349, N-hydroxy-N′,2-dimethyl-2-{methyl[(4′-methylbiphenyl-4-yl)carbonyl]amino}propanediamide] stands under 10 nM; under `CNC(=O)C(C)(C(=O)NO)N(C)C(=O)c1ccc(-c2ccc(OCCCN3CCOCC3)cc2)cc1` (centres unmarked) [Compound 350, N-hydroxy-N′,2-dimethyl-2-[methyl({4′-[3-(morpholin-4-yl)propoxy]biphenyl-4-yl}carbonyl)amino]propanediamide], under 10 nM. Next, `CNC(=O)C(C(=O)NO)N(C)C(=O)c1ccc(-c2ccc(S(C)(=O)=O)cc2)cc1` (centres unmarked) [Compound 352, N-hydroxy-N′-methyl-2-(methyl {[4′-(methylsulfonyl)biphenyl-4-yl]carbonyl}amino)propanediamide]: 10 to 100 nM; `CNC(=O)C(C(=O)NO)N(C)C(=O)c1ccc(C#Cc2ccc(C(C)N)cc2)cc1` (centres unmarked) [Compound 358, 2-{[(4-{[4-(1-aminoethyl)phenyl]ethynyl}phenyl)carbonyl](methyl)amino}-N-hydroxy-N′-methylpropanediamide]: 10 to 100 nM. Turning to `CNC(=O)C(C(=O)NO)N(C)C(=O)c1ccc(C#Cc2ccc(C(C)N3CCOCC3)cc2)cc1` (centres unmarked) [Compound 367, N-hydroxy-N′-methyl-2-(methyl {[4-({4-[1-(morpholin-4-yl)ethyl]phenyl}ethynyl)phenyl]carbonyl}amino)propanediamide], the IC50 is under 10 nM. In the case of `CNC(=O)C(C(=O)NO)N(C)C(=O)c1ccc(C#Cc2cccc(CN3CCOCC3)c2)cc1` (centres unmarked) [Compound 375, N-hydroxy-N′-methyl-2-{methyl[(4-{[3-(morpholin-4-ylmethyl)phenyl]ethynyl}phenyl)carbonyl]amino}propanediamide], the IC50 is 10 to 100 nM.

For the molecule `CNC(=O)[C@](C)(C(=O)NO)N(C)C(=O)c1ccc(C#Cc2ccc(CN3CCCOCC3)cc2)cc1` [Compound 377, (2R)-N-hydroxy-N′,2-dimethyl-2-{methyl[(4-{[4-(1,4-oxazepan-4-ylmethyl)phenyl]ethynyl}phenyl)carbonyl]amino}propanediamide], the IC50 is under 10 nM. Under `CNC(=O)C(C(=O)NO)N(C)C(=O)c1ccc(C#Cc2ccc(CNCCS(C)(=O)=O)cc2)cc1` (centres unmarked) [Compound 378, N-hydroxy-N′-methyl-2-{methyl[(4-{[4-({[2-(methylsulfonyl)ethyl]amino}methyl)phenyl]ethynyl}phenyl)carbonyl]amino}propanediamide] stands under 10 nM. On to `CNC(=O)C(C(=O)NO)N(C)C(=O)c1ccc(C#Cc2cccc(CNC3CC3)c2)cc1` (centres unmarked) [Compound 379, 2-[{[4-({3-[(cyclopropylamino)methyl]phenyl}ethynyl)phenyl]carbonyl}(methyl)amino]-N-hydroxy-N′-methylpropanediamide], for which the IC50 fell in the range of 10 to 100 nM. Under `CNC(=O)C(C)(NC(=O)c1ccc(C#Cc2ccc(CN3CCCOCC3)cc2)cc1)C(=O)NO` (centres unmarked) [Compound 380, N-hydroxy-N′,2-dimethyl-2-{[(4-{[4-(1,4-oxazepan-4-ylmethyl)phenyl]ethynyl}phenyl)carbonyl]amino}propanediamide] stands 10 to 100 nM.

With `CNC(=O)C(C(=O)NO)N(C)C(=O)c1ccc(C#Cc2ccc(OCCN3CCCOCC3)cc2)cc1` (centres unmarked) [Compound 381, N-hydroxy-N′-methyl-2-(methyl {[4-({4-[2-(1,4-oxazepan-4-yl)ethoxy]phenyl}ethynyl)phenyl]carbonyl}amino)propanediamide], the IC50 is under 10 nM. Next, `CNC(=O)C(C(=O)NO)N(C)C(=O)c1ccc(C#Cc2ccc(OCCN3CCOCC3)cc2)cc1` (centres unmarked) [Compound 382, N-hydroxy-N′-methyl-2-(methyl {[4-({4-[2-(morpholin-4-yl)ethoxy]phenyl}ethynyl)phenyl]carbonyl}amino)propanediamide]: under 10 nM; `CNC(=O)C(C(=O)NO)N(C)C(=O)c1ccc(C#Cc2ccc(CN3CCC(OC)CC3)cc2)cc1` (centres unmarked) [Compound 383, N-hydroxy-2-[{[4-({4-[(4-methoxypiperidin-1-yl)methyl]phenyl}ethynyl)phenyl]carbonyl}(methyl)amino]-N′-methylpropanediamide]: under 10 nM. In the case of `CNC(=O)C(C(=O)NO)N(C)C(=O)c1ccc(C#Cc2ccc3c(c2)CN(C2CC2)C3)cc1` (centres unmarked) [Compound 385, 2-[({4-[(2-cyclopropyl-2,3-dihydro-1H-isoindol-5-yl)ethynyl]phenyl}carbonyl)(methyl)amino]-N-hydroxy-N′-methylpropanediamide], the IC50 was under 10 nM.

As for `CNC(=O)C(C(=O)NO)N(C)C(=O)c1ccc(-c2ccc(C#CCO)cc2)cc1` (centres unmarked) [Compound 389, N-hydroxy-2-[{[4′-(3-hydroxyprop-1-yn-1-yl)biphenyl-4-yl]carbonyl}(methyl)amino]-N′-methylpropanediamide], the IC50 was under 10 nM. With `CNC(=O)C(C(=O)NO)N(C)C(=O)c1ccc(-c2ccc(C#CCN3CCOCC3)cc2)cc1` (centres unmarked) [Compound 390, N-hydroxy-N′-methyl-2-[methyl({4′-[3-(morpholin-4-yl)prop-1-yn-1-yl]biphenyl-4-yl}carbonyl)amino]propanediamide], the IC50 was under 10 nM. Under `CNC(=O)C(C(=O)NO)N(C)C(=O)c1ccc(C#Cc2ccc(C3(N)CC3)cc2)cc1` (centres unmarked) [Compound 394, 2-{[(4-{[4-(1-aminocyclopropyl)phenyl]ethynyl}phenyl)carbonyl](methyl)amino}-N-hydroxy-N′-methylpropanediamide] stands 10 to 100 nM; under `CCCNc1ccc(C#Cc2ccc(C(=O)N(C)C(C(=O)NC)C(=O)NO)cc2)nc1` (centres unmarked) [Compound 407, N-hydroxy-N′-methyl-2-{methyl[(4-{[5-(propylamino)pyridin-2-yl]ethynyl}phenyl)carbonyl]amino}propanediamide], 10 to 100 nM; under `CNC(=O)C(C(=O)NO)N(C)C(=O)c1ccc(C#Cc2ccn(C)n2)cc1` (centres unmarked) [Compound 418, N-hydroxy-N′-methyl-2-[methyl({4-[(1-methyl-1H-pyrazol-3-yl)ethynyl]phenyl}carbonyl)amino]propanediamide], over 100 nM. Under `CNC(=O)C(C(=O)NO)N(C)C(=O)c1ccc(C#Cc2ccc(C(F)(F)F)cc2)cc1` (centres unmarked) [Compound 420, N-hydroxy-N′-methyl-2-{methyl[(4-{[4-(trifluoromethyl)phenyl]ethynyl}phenyl)carbonyl]amino}propanediamide] stands 10 to 100 nM.

(Values after patent US9073821B2, “Hydroxamic acid derivative” (priority 2010, dated 2015).)
